Laboratory results from PubChem BioAssay AID489023 (Sanford-Burnham Center for Chemical Genomics, 2010).
Activity calls are given as the source filed them. How the calls were made is not given here.

System: 697B cells, BCR-induced NF-kB luciferase reporter luminescence
Test: inhibitors of BCR-induced NF-kB activation, dose response, 697B cells, luciferase luminescence (AID 489023)

| SMILES | IC50 |
| --- | --- |
| Cn1c(=O)n(C)c2cc(/C=C3/NC(=O)N(Cc4ccccc4)C3=O)ccc21 | > 80 µM (inactive) |
| Cc1cc(C)c(CN2CCN(C(=O)Cn3cnc4c(NCc5ccccc5)ncnc43)CC2)c(C)c1 | 52.7 µM (inactive) |
| CCNc1nc(C)c2cc(Br)c(=O)n(CC)c2n1 | 1.48 µM |
| O=S(=O)(NCc1ccncc1)c1ccc(Br)s1 | > 80 µM (inactive) |
| CCCCCOc1ccc(NC(=O)C(=O)NCCCn2ccnc2)cc1 | 4.78 µM |
| Cc1ccc(NC(=O)O/N=C/c2c(C)nn(C(C)(C)C)c2C)cc1Cl | < 0.16 µM |
| COc1cccc(Cn2nnc(C(=O)Nc3cc(Cl)ccc3OC)c2N)c1 | > 80 µM (inactive) |
| CCc1cccc(NC(=O)c2ccc(CNc3c(N4CCCC4)c(=O)c3=O)cc2)c1 | > 80 µM (inactive) |
| O=C(Nc1cccc(Oc2ccc3c(c2)C(=O)NC3=O)c1)c1cccs1 | > 80 µM (inactive) |
| Cc1cc(C)cc(N2C(=O)NC(=O)/C(=C\c3cccn3-c3ccccc3)C2=O)c1 | 36.4 µM (inactive) |
| CCn1c(=O)cc(SCC(=O)N2CCN(C(=O)c3ccco3)CC2)c2ccccc21 | > 80 µM (inactive) |
| CCCCCCn1c(-c2ccco2)nc2oc3cc(OC)ccc3c(=O)c2c1=O | > 80 µM (inactive) |
| COC(=O)CSc1nnc(-c2sc3ccccc3c2Cl)o1 | 10.3 µM |
| Cc1cc(C)nc(Sc2ccc([N+](=O)[O-])cc2[N+](=O)[O-])n1 | 1.95 µM |
| Cc1ccc(/C=C2\SC(=S)N(CCCC(=O)Nc3cc(C)on3)C2=O)cc1 | 34.3 µM (inactive) |
| C=CCn1c(O)c(C(C)=NC(C)c2ccccc2)c(=O)[nH]c1=O (configuration not stated) | > 80 µM (inactive) |
| O=C(O)CCSc1ncnc2sc(-c3ccccc3)cc12 | 2.29 µM |
| CCOC(=O)CNC(=O)CSc1nnc(NC(=O)c2ccc(C)cc2)s1 | 6.84 µM |
| O=c1c(C=NCCCO)c(-c2ccccc2)[nH]n1-c1nc2ccccc2s1 | 9.07 µM |
| Cc1nc2cc(-c3ccccc3)nn2c(C)c1CCC(=O)NCc1ccco1 | > 80 µM (inactive) |
| COc1ccc(CC(=O)Nc2cccc(-c3ccc4nnc(C)n4n3)c2)cc1 | 71.7 µM (inactive) |
| CCOC(=O)C1CCN(c2ncnc3c2cnn3-c2ccc(Cl)cc2)CC1 | 0.82 µM |
| CCOC(=O)c1sc(NC(=O)c2cc(-c3ccccc3C)nc3ccccc23)c(C#N)c1C | 19.3 µM |
| CC(C)(C)c1ccc(-c2noc(CCC(N)=O)n2)cc1 | < 0.16 µM |
| CC1CCC/C=C/C2CC(O)CC2C(O)/C=C/C(=O)O1 (configuration not stated) | > 80 µM (inactive) |
| COc1ccc(/C=C2/SC(=S)N(CCC(=O)O)C2=O)cc1 | 2.46 µM |

| SMILES | IC50 |
| --- | --- |
| CCN1C(=O)Nc2cccc3cccc1c23 | 35.2 µM (inactive) |
| COc1ccc(-c2ccc(F)cc2)cc1[C@H]1[C@H]2C=CC[C@@H](C)[C@@H]2C(=O)N1Cc1ccccc1 | > 80 µM (inactive) |
| CCN(CC)CCOC(=O)c1ccc(NC(=O)CCCN2C(=O)S/C(=C/c3ccc(OC)cc3)C2=S)cc1 | 2.11 µM |
| CC1CC(C)(C)Nc2ccc(OC(=O)c3ccco3)cc21 (configuration not stated) | 9.11 µM |
| CC(C)(C)c1ccc(-c2noc(CCC(=O)N3CCOCC3)n2)cc1 | 51.6 µM (inactive) |
| Cc1nc2cc(-c3cccc(F)c3)nn2c(C)c1CCC(=O)NC(C)CCc1ccco1 (configuration not stated) | 13.8 µM |
| CCN(CC(=O)Nc1c(F)cccc1F)C(=O)c1cc(S(=O)(=O)N(C)C)ccc1N1CCCC1 | 12.2 µM |
| COC(=O)c1cc(NC(=O)Nc2cc(OC)ccc2OC)cc(C(=O)OC)c1 | > 80 µM (inactive) |
| CC(C)(C)c1ccc(-c2noc(CCC(=O)NCc3ccco3)n2)cc1 | < 0.16 µM |
| CCn1c(=O)cc(OCC(=O)N(C)C2CCCCC2)c2ccccc21 | > 80 µM (inactive) |
| CCN1C(=O)c2cccc3c(S(=O)(=O)NCC4CCCO4)ccc1c23 (configuration not stated) | 69.7 µM (inactive) |
| COc1ccc(-c2ccc(N(C)C)cc2)cc1[C@H]1[C@H]2C=CC[C@@H](C)[C@@H]2C(=O)N1Cc1ccccc1 | > 80 µM (inactive) |
| CN1C(=O)CC(c2ccco2)Sc2ccccc21 (configuration not stated) | > 80 µM (inactive) |
| CC1(c2nnc(-c3cccc(Cl)c3)o2)CC(c2cccc(Cl)c2)=NO1 (configuration not stated) | > 80 µM (inactive) |
| COc1ccc(OCc2cccc(C(=O)NN)c2)cc1 | 2.43 µM |
| COc1ccccc1/C=C1\SC(=S)N(CCC(=O)Nc2cccc(O)c2)C1=O | > 80 µM (inactive) |
| O=C(CCl)Nc1ccccc1Sc1ccccc1 | 15.9 µM |
| O=C(Nc1ccc(NC(=O)c2cc3ccccc3o2)cc1)c1ccc2c(c1)OCCO2 | 0.3 µM |
| CCOc1ccc(-c2nnc(SCC(=O)Nc3cc(C)on3)o2)cc1 | 12 µM |
| CC1Cc2ccccc2N1S(=O)(=O)c1cnc(Cl)c(Br)c1 (configuration not stated) | 72.9 µM (inactive) |
| Cc1nc(Nc2c(Cl)cccc2Cl)sc1C(=O)Nc1ccccc1 | 50.1 µM (inactive) |
| CCCOc1ccc(NC(=O)C(=O)NCCCn2ccnc2)cc1 | 14.2 µM |
| CCn1c(=O)c2cc(C(=O)NC(C)C)sc2c2ccccc21 | > 80 µM (inactive) |
| Cc1cc(OCC(=O)Nc2ccc(CCO)cc2)c2c(C)c(C)c(=O)oc2c1 | > 80 µM (inactive) |
| Cc1ccc(C(=O)N2CCCC(c3ccc(Cl)cc3)=N2)cc1 | > 80 µM (inactive) |
| Oc1[nH]c2ccccc2c1N=Nc1nc(Nc2ccccc2)nc(N2CCOCC2)n1 | 1.36 µM |

| SMILES | IC50 |
| --- | --- |
| CC1CCc2c(sc3nc(C(C)(C)C)nc(N4CCN(C(=O)CCl)CC4)c23)C1 (configuration not stated) | 0.68 µM |
| Cc1csc(NC(=O)/C=C/c2ccc3c(c2)OCO3)n1 | 6.13 µM |
| Cc1ccc(C)c(OCc2ccc(C(=O)NN)o2)c1 | > 80 µM (inactive) |
| CCN1C(=O)c2cccc3c(S(=O)(=O)Nc4ccccc4)ccc1c23 | 40.4 µM (inactive) |
| CCn1c(=O)cc(SCC(=O)N2CCCCC2)c2ccccc21 | > 80 µM (inactive) |
| COc1ccc(-n2c(-c3ccc(Br)cc3)c[n+]3c2CCc2ccccc2-3)cc1 | > 80 µM (inactive) |
| CC(C)c1ccc(/C=C2\SC(=S)N(CCC(=O)N3CCCCC3CCO)C2=O)cc1 (configuration not stated) | 1.63 µM |
| COc1ccc(-c2ccc(OC)c([C@H]3[C@H]4C=CC[C@@H](C)[C@@H]4C(=O)N3Cc3ccccc3)c2)cc1 | > 80 µM (inactive) |
| CCNC(=O)CCc1nc(-c2ccc(C(C)(C)C)cc2)no1 | < 0.16 µM |
| CCCS(=O)(=O)Nc1cccc(-c2ccc3nnc(C)n3n2)c1 | > 80 µM (inactive) |
| Cn1c(=O)n(C)c2cc(NS(=O)(=O)c3ccccc3)ccc21 | 38.3 µM (inactive) |
| COc1ccc(-c2nsc(SCC(=O)Nc3cc(C)on3)n2)cc1 | 46.3 µM (inactive) |
| COc1cc(C2C(C#N)=C(N)Oc3cc(N)ccc32)cc(OC)c1OC (configuration not stated) | > 80 µM (inactive) |
| COc1ccccc1/C=C1/SC(=S)N(CCC(=O)Nc2cccnc2)C1=O | 9.65 µM |
| C#CCN(Cc1ccccc1)S(=O)(=O)C=C | 21.3 µM (inactive) |
| Nc1ccc(-c2cc3ccccc3oc2=O)cc1 | 0.39 µM |
| CCOC(=O)/C=C(\C)Sc1cc(=O)oc2ccccc12 | 1.61 µM |
| Cc1ccccc1-n1c(SCc2c(C)noc2C)nnc1-c1c[nH]c2ccccc12 | 76.1 µM (inactive) |
| CCC(CC)C(=O)Nc1ccc(Sc2ccc([N+](=O)[O-])cc2)cc1 | 32.2 µM (inactive) |
| Cc1cc(=O)[nH]c2c(C)cc(S(=O)(=O)N3CCCCC3)cc12 | > 80 µM (inactive) |
| COc1ccc2nc(Sc3c([N+](=O)[O-])nc(C)n3Cc3ccccc3)[nH]c2c1 | 18.2 µM |
| Cc1ccc(-c2cc(C(=O)NCCCN3CCOCC3)no2)cc1 | 11.5 µM |
| Cc1c(CCC(=O)N2CCC[C@H]2C(=O)O)c(=O)oc2cc3oc4c(c3cc12)CCCC4 | > 80 µM (inactive) |
| Cc1nc2cc(-c3cccc(F)c3)nn2c(C)c1CCC(=O)N1CCC2(CC1)OCCO2 | 49.5 µM (inactive) |
| CCN(C(=O)CN1C(=O)NC(c2ccccc2)(c2ccc(C)c(C)c2)C1=O)C1CCCCC1 (configuration not stated) | 48.4 µM (inactive) |
| O=C(c1cc2nc(-c3ccccc3)cc(-c3ccccc3)n2n1)N1CCN(C(=O)c2ccco2)CC1 | 8.73 µM |

| SMILES | IC50 |
| --- | --- |
| Cc1cc(C)c2nc(NC(=O)[C@@H](NC(=O)c3cccc(S(=O)(=O)N4CCOCC4)c3)C(C)C)sc2c1 | 16 µM |
| CCOC(=O)c1cc2c(=O)n3ccccc3nc2n(CC(C)C)c1=NC(=O)c1c(-c2c(F)cccc2Cl)noc1C | > 80 µM (inactive) |
| CCOc1ccc(-c2cc(CCCC(=O)NCc3ccco3)no2)cc1 | 6.57 µM |
| CCOC(=O)Cc1ccc(NC(=O)c2ccc(C(C)(C)C)cc2)cc1 | < 0.16 µM |
| COC(=O)[C@@H]1Cc2c([nH]c3ccccc23)C(C)(C)N1C(=O)CCl | 1.12 µM |
| CC(C)(C)c1ccc(-c2noc(CCC(=O)Nc3cccnc3)n2)cc1 | < 0.16 µM |
| Cc1ccc(Sc2cc(NCCCO)c([N+](=O)[O-])c3nonc23)cc1 | > 80 µM (inactive) |
| COc1cc(-c2nc3ccc(N4CCN(C)CC4)cc3[nH]2)cc(OC)c1OC | > 80 µM (inactive) |
| CCc1ccc(/C=C2/SC(=S)N(CCC(=O)Nc3cccc(C(=O)O)c3)C2=O)cc1 | > 80 µM (inactive) |
| CCc1sc(C(=O)Nc2cccc(-n3cnnn3)c2)cc1C | > 80 µM (inactive) |
| CCc1ccc(/C=C2/SC(=S)N(CCC(=O)Nc3ccc(C(=O)O)cc3)C2=O)cc1 | 4.07 µM |
| CCOc1ccc(-n2c(SCC(=O)Nc3ccc4c(c3)OCCO4)nc3c(c2=O)SCC3)cc1 | 11.7 µM |
| Cc1ccc(/C=C2\SC(=S)N(CCCC(=O)Nc3cccnc3)C2=O)cc1 | 0.25 µM |
| COc1ccc(C(=O)Nc2nnc(SCC(=O)Nc3ccc(NC(C)=O)cc3)s2)c(OC)c1 | > 80 µM (inactive) |
| COCCCNC(=O)COc1ccc(-c2nccc(-c3ccccn3)n2)cc1 | 19.4 µM |
| CCC(=O)N(C1=C(NC)C(=O)c2ccccc2C1=O)C(C)C | > 80 µM (inactive) |
| ClCc1nnc(-c2ccccc2)o1 | 12.7 µM |
| Cn1nnnc1Sc1ncnc2scc(Br)c12 | 0.67 µM |
| COc1ccc(/C=C2/SC(=S)N(CCCC(=O)Nc3cccc(O)c3)C2=O)cc1 | 3.88 µM |
| COCCCn1c(=O)/c(=C\c2cccc(OC)c2OC)s/c1=C(/C#N)C(=O)Nc1ccc(C(=O)O)cc1 | > 80 µM (inactive) |
| C=CCOC(=O)COc1cc(C)cc2oc(=O)c3c(c12)CCC3 | > 80 µM (inactive) |
| Cc1ccc(-c2c[n+]3c(n2-c2ccccc2)SCC3)cc1 | > 80 µM (inactive) |
| NC(=S)N=Nc1c(O)n(Cc2ccccc2)c2ccccc12 | 16.3 µM |
| Cc1ccc(CSc2nnc(SCC(=O)N/N=C/C=C/c3ccccc3[N+](=O)[O-])s2)cc1 | > 80 µM (inactive) |
